{"source": "patent US20230381157A1", "about": "“RIFABUTIN FOR THE TREATMENT OF ACINETOBACTER BAUMANNII” (University of Southern California, priority 2018, published 2023)", "format_in_all_cases": "cell-based, Acinetobacter baumannii", "key": {"[1]": {"tested_on": "GFP expressing reporter strain of A. baumannii HUMC1", "settings": "addition of amino acids to RPMI vs RPMI alone; 6 hours"}, "A. baumannii": {"tested_on": "A. baumannii", "experiment": "MIC, broth microdilution, A. baumannii clinical isolates / strain panel", "settings": "for MIC50 / MIC90: A. baumannii strain panel"}, "A. baumannii HUMC1": {"tested_on": "A. baumannii HUMC1", "experiment": "MIC, broth microdilution in MHII, RPMI or modified media", "settings": "Acinetobacter baumannii, HUMC1, HUMC1"}}, "data": [{"smiles": "CO[C@H]1/C=C/O[C@@]2(C)Oc3c(C)c(O)c4c(c3C2=O)C2=NC3(CCN(CC(C)C)CC3)NC2=C(NC(=O)/C(C)=C\\C=C\\[C@H](C)[C@H](O)[C@@H](C)[C@@H](O)[C@@H](C)[C@H](OC(C)=O)[C@@H]1C)C4=O", "note": "[rifabutin]", "values": [{"measurement": "inhibition of GFP fluorescence", "setting": "[1]", "result": "less inhibition of GFP fluorescence"}, {"measurement": "fold more potent than rifampin (RIF)", "setting": "A. baumannii; A. baumannii, RPMI with serum", "result": 133, "unit": "fold"}, {"measurement": "Rifabutin MIC", "setting": "A. baumannii; AB044, MHII", "result": 3.12, "unit": "µg/mL"}, {"measurement": "Rifabutin MIC", "setting": "A. baumannii; AB044, RPMI", "result": 0.78, "unit": "µg/mL"}, {"measurement": "Rifabutin MIC", "setting": "A. baumannii; AB046, MHII", "result": 0.19, "unit": "µg/mL"}, {"measurement": "Rifabutin MIC", "setting": "A. baumannii; AB046, MHII (first line)", "result": 6.25, "unit": "µg/mL"}, {"measurement": "Rifabutin MIC", "setting": "A. baumannii; AB307-0294, MHII", "result": 6.25, "unit": "µg/mL"}, {"measurement": "Rifabutin MIC", "setting": "A. baumannii; AB307-0294, RPMI", "result": "< 0.05", "unit": "µg/mL"}, {"measurement": "Rifabutin MIC", "setting": "A. baumannii; AB15827, MHII", "result": 3.13, "unit": "µg/mL"}, {"measurement": "Rifabutin MIC", "setting": "A. baumannii; AB15827, RPMI", "result": 0.2, "unit": "µg/mL"}, {"measurement": "Rifabutin MIC", "setting": "A. baumannii; ARLG-1314, MHII", "result": 6.25, "unit": "µg/mL"}, {"measurement": "Rifabutin MIC", "setting": "A. baumannii; ARLG-1314, RPMI", "result": "< 0.05", "unit": "µg/mL"}, {"measurement": "Rifabutin MIC", "setting": "A. baumannii; ARLG-1777, MHII", "result": 6.25, "unit": "µg/mL"}, {"measurement": "Rifabutin MIC", "setting": "A. baumannii; ARLG-1777, RPMI", "result": 3.13, "unit": "µg/mL"}, {"measurement": "Rifabutin MIC", "setting": "A. baumannii; ARLG-1915, MHII", "result": 3.13, "unit": "µg/mL"}, {"measurement": "Rifabutin MIC", "setting": "A. baumannii; ARLG-1915, RPMI", "result": 0.1, "unit": "µg/mL"}, {"measurement": "Rifabutin MIC", "setting": "A. baumannii; ATCC 17978, MHII", "result": 3.12, "unit": "µg/mL"}, {"measurement": "Rifabutin MIC", "setting": "A. baumannii; ATCC 17978, RPMI", "result": "< 0.05", "unit": "µg/mL"}, {"measurement": "MIC", "setting": "A. baumannii; Acinetobacter baumannii, A. baumannii (strain not named), MHII", "result": 4, "unit": "µg/mL"}, {"measurement": "MIC", "setting": "A. baumannii; Acinetobacter baumannii, A. baumannii (strain not named), RPMI with serum", "result": 0.031, "unit": "µg/mL"}, {"measurement": "MIC", "setting": "A. baumannii; Acinetobacter baumannii, A. baumannii VA-AB21, MHII", "result": 3.12, "unit": "µg/mL"}, {"measurement": "MIC", "setting": "A. baumannii; Acinetobacter baumannii, A. baumannii VA-AB21, RPMI", "result": 0.391, "unit": "µg/mL"}, {"measurement": "MIC50", "setting": "A. baumannii; Acinetobacter baumannii, CAMHB", "result": 3.13, "unit": "µg/mL"}, {"measurement": "MIC90", "setting": "A. baumannii; Acinetobacter baumannii, CAMHB", "result": 6.25, "unit": "µg/mL"}, {"measurement": "MIC50", "setting": "A. baumannii; Acinetobacter baumannii, RPMI", "result": 0.39, "unit": "µg/mL"}, {"measurement": "MIC90", "setting": "A. baumannii; Acinetobacter baumannii, RPMI", "result": 3.13, "unit": "µg/mL"}, {"measurement": "MIC", "setting": "A. baumannii; Acinetobacter baumannii, ATCC17978, A. baumannii ATCC17978 and HUMC1, MHII", "result": 2, "unit": "µg/mL"}, {"measurement": "MIC", "setting": "A. baumannii; Acinetobacter baumannii, ATCC17978, A. baumannii ATCC17978 and HUMC1, RPMI", "result": "< 0.0625", "unit": "µg/mL"}, {"measurement": "fold lower MIC in RPMI than in Mueller-Hinton-based medium (CAMHB)", "setting": "A. baumannii; Acinetobacter baumannii, up to", "result": "up to 200 fold"}, {"measurement": "Rifabutin MIC", "setting": "A. baumannii; HUMC6, MHII", "result": 25, "unit": "µg/mL"}, {"measurement": "Rifabutin MIC", "setting": "A. baumannii; HUMC6, RPMI", "result": 3.13, "unit": "µg/mL"}, {"measurement": "Rifabutin MIC", "setting": "A. baumannii; HUMC10, MHII", "result": 12.5, "unit": "µg/mL"}, {"measurement": "Rifabutin MIC", "setting": "A. baumannii; HUMC10, RPMI", "result": "< 0.05", "unit": "µg/mL"}, {"measurement": "Rifabutin MIC", "setting": "A. baumannii; LAC -- 4, MHII", "result": 0.78, "unit": "µg/mL"}, {"measurement": "Rifabutin MIC", "setting": "A. baumannii; LAC -- 4, RPMI", "result": 1.56, "unit": "µg/mL"}, {"measurement": "Rifabutin MIC", "setting": "A. baumannii; LACUSC-01, MHII", "result": 6.25, "unit": "µg/mL"}, {"measurement": "Rifabutin MIC", "setting": "A. baumannii; LACUSC-01, RPMI", "result": "< 0.05", "unit": "µg/mL"}, {"measurement": "Rifabutin MIC", "setting": "A. baumannii; NIH1, MHII", "result": 3.13, "unit": "µg/mL"}, {"measurement": "Rifabutin MIC", "setting": "A. baumannii; NIH1, RPMI", "result": 3.13, "unit": "µg/mL"}, {"measurement": "Rifabutin MIC", "setting": "A. baumannii; UH118, MHII", "result": 3.13, "unit": "µg/mL"}, {"measurement": "Rifabutin MIC", "setting": "A. baumannii; UH118, RPMI", "result": 0.2, "unit": "µg/mL"}, {"measurement": "Rifabutin MIC", "setting": "A. baumannii; UH516, MHII", "result": "> 25", "unit": "µg/mL"}, {"measurement": "Rifabutin MIC", "setting": "A. baumannii; UH516, RPMI", "result": "> 25", "unit": "µg/mL"}, {"measurement": "Rifabutin MIC", "setting": "A. baumannii; UH2207, MHII", "result": 6.25, "unit": "µg/mL"}, {"measurement": "Rifabutin MIC", "setting": "A. baumannii; UH2207, RPMI", "result": 3.13, "unit": "µg/mL"}, {"measurement": "Rifabutin MIC", "setting": "A. baumannii; UH6507, MHII", "result": 3.13, "unit": "µg/mL"}, {"measurement": "Rifabutin MIC", "setting": "A. baumannii; UH6507, RPMI", "result": 0.39, "unit": "µg/mL"}, {"measurement": "Rifabutin MIC", "setting": "A. baumannii; VA-AB21, MHII", "result": 3.12, "unit": "µg/mL"}, {"measurement": "Rifabutin MIC", "setting": "A. baumannii; VA-AB21, RPMI", "result": 0.391, "unit": "µg/mL"}, {"measurement": "Rifabutin MIC", "setting": "A. baumannii; VA-AB74, MHII", "result": 6.25, "unit": "µg/mL"}, {"measurement": "Rifabutin MIC", "setting": "A. baumannii; VA-AB74, RPMI", "result": 3.13, "unit": "µg/mL"}, {"measurement": "MIC", "setting": "A. baumannii HUMC1; 5 × RPMI", "result": "< 0.0625", "unit": "µg/mL"}, {"measurement": "MIC", "setting": "A. baumannii HUMC1; 10-30 kDa MHII Fraction spiked into RPMI", "result": 8, "unit": "µg/mL"}, {"measurement": "MIC", "setting": "A. baumannii HUMC1; 25° C., MHII", "result": 4, "unit": "µg/mL"}, {"measurement": "MIC", "setting": "A. baumannii HUMC1; 25° C., RPMI", "result": "< 0.06", "unit": "µg/mL"}, {"measurement": "MIC", "setting": "A. baumannii HUMC1; <10 kDa MHII Fraction spiked into RPMI", "result": 8, "unit": "µg/mL"}, {"measurement": "MIC", "setting": "A. baumannii HUMC1; Low Salt Luria Broth", "result": 2, "unit": "µg/mL"}, {"measurement": "MIC", "setting": "A. baumannii HUMC1; Luria Broth", "result": 1, "unit": "µg/mL"}, {"measurement": "MIC", "setting": "A. baumannii HUMC1; M9", "result": "< 0.05", "unit": "µg/mL"}, {"measurement": "MIC", "setting": "A. baumannii HUMC1; MHII (CAMHB)", "result": 4, "unit": "µg/mL"}, {"measurement": "MIC", "setting": "A. baumannii HUMC1; MHII + 200 mg/L glucose", "result": 2, "unit": "µg/mL"}, {"measurement": "MIC", "setting": "A. baumannii HUMC1; MHII + 2,000 mg/L glucose", "result": 2, "unit": "µg/mL"}, {"measurement": "MIC", "setting": "A. baumannii HUMC1; MHII + Non-Essential Amino Acid Solution (100×)", "result": 3.12, "unit": "µg/mL"}, {"measurement": "MIC", "setting": "A. baumannii HUMC1; No Salt Luria Broth", "result": 1, "unit": "µg/mL"}, {"measurement": "MIC", "setting": "A. baumannii HUMC1; Non tissue culture treated 96-well plates", "result": 1.56, "unit": "µg/mL"}, {"measurement": "MIC", "setting": "A. baumannii HUMC1; RPMI + CCCP (2 μg/mL) + Essential Amino Acids", "result": 1.56, "unit": "µg/mL"}]}]}
